Test results reported in PubChem BioAssay AID2305 (GlaxoSmithKline (GSK), 2010).

test system: P. falciparum 3D7 growth, pLDH absorbance; test: blood-stage malaria parasite growth potency – strain 3D7, dose response (AID 2305)

**Q.** How did the IC50 turn out when `Cc1cc(-c2ccc(NC(=O)N3CCc4cc(Br)c(N5CCN(C)CC5)cc43)cc2)ccc1C#N` was run?
**A.** 880 nM

**Q.** `O=C(Nc1ccc(Oc2ccccc2)cc1)N[C@@H](Cc1ccc(O)cc1)C(=O)NC1CCN(Cc2ccc(O)c([N+](=O)[O-])c2)C1` (some centres not stated) was tested. Which IC50 did it give?
**A.** 1510 nM

**Q.** Which IC50 does the source give for `CC(C)c1ccc(CN(C)CCCCNC(=O)c2ccc(NC(=O)c3ccc(Cl)cc3)cc2)cc1` here?
**A.** 990 nM

**Q.** `Fc1cc(Cl)ccc1Nc1ccnc2cc(-c3ccc(CN4CCSCC4)o3)ccc12` was tested. Which IC50 did it give?
**A.** 780 nM

**Q.** With `Cc1cccc2[nH]c(-c3cccc(-c4ccc(NC(=O)CC5NC(=O)c6ccccc65)cc4)c3)nc12` (configuration not stated) as the molecule, how does the IC50 read?
**A.** 290 nM

**Q.** How did the IC50 turn out when `Cc1cccc2[nH]c(-c3ccc(-c4ccc(CN5CCCC(N)C5)cc4)s3)nc12` (configuration not stated) was run?
**A.** 380 nM

**Q.** For `CN=C(N)c1ccc(NC(=O)c2ccc(C(=O)Nc3ccc(C(N)=NC)cc3)cc2)cc1`, which IC50 is on record?
**A.** 50 nM

**Q.** For `O=C(Nc1cc(Cl)ccc1O)c1cc(-c2ccccc2O)no1`, which IC50 is on record?
**A.** 1090 nM

**Q.** For `Cn1c(NC(=O)CCCCCNC(=O)c2ccc(O)c(-c3ccc(Cl)c(Cl)c3)c2)nc2ccccc21`, which IC50 is on record?
**A.** 730 nM

**Q.** `O=C(NCCc1ccc(Cl)c(Cl)c1)c1ccc(CNC(=O)c2ccc(O)c(-c3ccc(Cl)c(Cl)c3)c2)cc1` was tested. Which IC50 did it give?
**A.** 810 nM

**Q.** For `CC1CCCCC1N(C)C1CCN(CCCNC(=O)C=Cc2ccccc2Cl)CC1` (configuration not stated), which IC50 is on record?
**A.** 670 nM

**Q.** Which IC50 does the source give for `CCCCCCCCNc1c2ccc(Cl)cc2nc2ccc(OC)cc12` here?
**A.** 810 nM

**Q.** How did the IC50 turn out when `CCc1cn2c3c(cc(C(=O)N[C@@H](Cc4ccccc4)[C@H](O)CNC(C)C)cc13)N(C)S(=O)(=O)C2` was run?
**A.** 320 nM

**Q.** `O=C(Nc1ccccc1)N(Cc1ccc(-c2ccc(CNC3CCCC3)cc2)cc1)C1CCN(Cc2ccccc2)CC1` was tested. Which IC50 did it give?
**A.** 410 nM

**Q.** For `CN(Cc1cccc(F)c1)C1CCN(c2cc(NC(=O)c3ccc(F)cc3)ccn2)CC1`, which IC50 is on record?
**A.** 1160 nM

**Q.** Which IC50 does the source give for `COc1ccc(Nc2nccc(N3CCC(NC(=O)C(C)c4ccc(Cl)cc4)C3)n2)cc1` (configuration not stated) here?
**A.** 1010 nM

**Q.** Which IC50 does the source give for `CC(C)(C)c1ccc(CNCCOc2ccc(Nc3nnc(-c4ccc(-c5ncc[nH]5)cc4)o3)c3ccccc23)cc1` here?
**A.** 140 nM

**Q.** With `O=C(Cc1ccc(NC(=O)c2ccc(O)c(-c3ccc(Cl)c(Cl)c3)c2)cc1)NCCN1CCOCC1` as the molecule, how does the IC50 read?
**A.** 810 nM

**Q.** With `Cc1[nH]c(C)c(-c2ccc(-c3ccccc3Cl)nc2)c(=O)c1Br` as the molecule, how does the IC50 read?
**A.** 170 nM

**Q.** For `COc1ccccc1C1CCN(C2CCC(NC(=O)c3cc4cc(C(C)C)ccc4[nH]3)CC2)CC1` (configuration not stated), which IC50 is on record?
**A.** 850 nM

**Q.** For `O=C(Nc1cccc(Cl)c1N1CCOCC1)C(Cl)(Cl)Cl`, which IC50 is on record?
**A.** 980 nM

**Q.** `O=C(Nc1ccc([N+](=O)[O-])cc1)Nc1nc2ccc(Cl)cc2s1` was tested. Which IC50 did it give?
**A.** 840 nM

**Q.** How did the IC50 turn out when `NS(=O)(=O)c1ccccc1Nc1nc(Nc2ccc(N3CCOCC3)cc2)nc2c1CCC2` was run?
**A.** 670 nM

**Q.** Which IC50 does the source give for `CCOc1c(CNCCCNc2nc3ccccc3[nH]2)cc(I)cc1OC` here?
**A.** 660 nM

**Q.** With `CC[C@H](C)CNC(=O)c1cncc(-c2cccc(CN3CCC(N4CCCC4)CC3)c2)c1` as the molecule, how does the IC50 read?
**A.** 1170 nM

**Q.** Which IC50 does the source give for `O=C(O[C@H]1CN[C@H](C#Cc2cc3c(Nc4ccc(OCc5cccc(F)c5)c(Cl)c4)ncnc3s2)C1)N1CCCC1` here?
**A.** 710 nM

**Q.** With `COc1nc2c(N3CCN(CCNCc4ccc5c(n4)NC(=O)CO5)CC3)ccnc2cc1F` as the molecule, how does the IC50 read?
**A.** 760 nM

**Q.** With `CN1CCN(c2ccnc3ccc(NC(=O)c4ccc(Cl)c(Cl)c4)cc23)CC1` as the molecule, how does the IC50 read?
**A.** 710 nM

**Q.** How did the IC50 turn out when `CN1CCN(c2ccc(-c3cc(-c4ccncc4)c(-c4ccc(Cl)c(O)c4)o3)cc2)CC1` was run?
**A.** 740 nM

**Q.** With `Cc1cc(NC(=O)c2coc3cc(F)c(N4C[C@@H](C)N(C)[C@@H](C)C4)cc23)ccc1-n1ccnc1` as the molecule, how does the IC50 read?
**A.** 840 nM

**Q.** Which IC50 does the source give for `FC(F)(F)c1ccc2nc(-c3cccc(-c4cccc(CN5CCN(c6ccncc6)CC5)c4)c3)[nH]c2c1` here?
**A.** 160 nM

**Q.** `Cc1ccnc(NC(c2cccc(OCc3ccccc3)c2)c2ccc3cccnc3c2O)c1` (configuration not stated) was tested. Which IC50 did it give?
**A.** 860 nM

**Q.** How did the IC50 turn out when `N#CCCN1CCN(Cc2cccc(-c3ccc(-c4nc5ccccc5[nH]4)cc3)c2)CC1` was run?
**A.** 1020 nM

**Q.** With `O=C1C(=Cc2cc(Cc3ccccc3)ccc2O)SC(=S)N1Cc1ccccc1` as the molecule, how does the IC50 read?
**A.** 940 nM

**Q.** For `OC(CNCc1ccccc1OCc1ccccc1)c1cccc(I)c1` (configuration not stated), which IC50 is on record?
**A.** 420 nM

**Q.** With `CS(=O)(=O)N(c1ccc(F)cc1)c1cc(C(=O)N[C@@H](Cc2ccccc2)[C@H](O)CNCc2cccc(C(F)(F)F)c2)cc(N2CCCC2=O)c1` as the molecule, how does the IC50 read?
**A.** 1350 nM

**Q.** For `COCCN(CCOC)c1ncc(-c2ccsc2)c(-c2nc(C)c(C)s2)n1`, which IC50 is on record?
**A.** 840 nM
